Source: patent US20220192955A1, “AZOXYSTROBIN EFFICACY IN SCALP HEALTH” (The Procter & Gamble Company, priority 2020, published 2022)
Marks after values point to notes of the source that are not given here.

Experiments:
keratin 1, keratin 10 = test: Scalp tape strip barrier integrity: keratins 1 and 10; format: in vivo, human
Description: (§1) Subjects are enrolled in a double-blind, randomized study for all test groups and have Baseline and Week 3 measurements of scalp health taken for flaking, itch and scalp health endpoints. Subjects take home a test product(s) and are instructed on use of test products throughout the study. Test products are solubilized in a hydroalcoholic leave-on formulation. Azoxystrobin raw material is sourced from AK Scientific Inc. (Union City, Calif.) as >97% pure. Azoxystrobin scalp treatment is prepared from a slurry of azoxystrobin in ethanol that is formulated to 0.1% (w/v) in a base chassis of 50% ethanol, 0.35% Ultrez 21 (rheology modifier), 0.05% neutrol TE and water (q.s.). […] Biomarkers of scalp health, including biomarkers of inflammation, itch, oxidative stress and barrier integrity are assessed by non-invasive tape strip sampling of the scalp surface to determine therapeutic resolution. All biomarkers are analyzed from D-Squame® scalp tape samples that are collected from the scalp of subjects before and after scalp treatment with either azoxystrobin or vehicle (Baseline, and Week 3 respectively). These are extracted and analyzed according to published methods (International Journal of Dermatology 2011, 50, 102-113, incorporated by reference herein). […] Biochemical markers of skin/scalp barrier integrity are analyzed to evaluate improvements on barrier health. […]

Myeloperoxidase = test: Scalp tape strip myeloperoxidase protein; format: in vivo, human
Description: as §1, with “Myeloperoxidase protein is” for “Biochemical markers of skin/scalp barrier integrity are”, “determine the impact of scalp treatment oxidative stress and potential oxidative damage.” for “evaluate improvements on barrier health.”

human scalp (dandruff) = test: Self-assessment questionnaire for itch perception; format: in vivo
Description: Subjects are enrolled in a double-blind, randomized study for all test groups and have Baseline and Week 3 measurements of scalp health taken for flaking, itch and scalp health endpoints. Subjects take home a test product(s) and are instructed on use of test products throughout the study. Test products are solubilized in a hydroalcoholic leave-on formulation. Azoxystrobin raw material is sourced from AK Scientific Inc. (Union City, Calif.) as >97% pure. Azoxystrobin scalp treatment is prepared from a slurry of azoxystrobin in ethanol that is formulated to 0.1% (w/v) in a base chassis of 50% ethanol, 0.35% Ultrez 21 (rheology modifier), 0.05% neutrol TE and water (q.s.). Vehicle scalp treatment is prepared similarly without the addition of azoxystrobin raw material. Subjects apply either azoxystrobin or vehicle scalp treatments daily for 3 weeks. Self-assessment questionnaires for itch perception are administered to each subject at Baseline and Week 3. Itch perception is quantified by each subject as severity of symptoms over the past 24 hours on a 7 point scale: 0=none, 1=slight, 2=slight to moderate, 3=moderate, 4=moderate to severe; 5=severe; 6=very severe.

[1] = 0.1% leave-on daily, Week 3, scalp tape strips

## CO/C=C(/C(=O)OC)c1ccccc1Oc1cc(Oc2ccccc2C#N)ncn1 [Azoxystrobin]
Keratin 1, keratin 10; [1]
  Keratins-1,10 % Change from Baseline: +86.0* %
Keratin 1, keratin 10; compared to a placebo control
  increase in keratins 1 and 10: 86%
Myeloperoxidase; [1]
  Myeloperoxidase Results % Change from Baseline: 63.7* %
Myeloperoxidase; compared to a placebo control
  reduction in myeloperoxidase: 64%
Human scalp (dandruff); 7 point scale 0-6, Common Baseline Severity = 3.1, 0.1% leave-on daily
  Mean Itch Severity at Week 3: 1.5*
Human scalp (dandruff); compared to a placebo control
  reduction in itch perception: 48%
